Measured values reported in patent publication US4731109A, “Herbicidal 2-haloacetanilides” (Monsanto Company, priority 1982, dated 1988).

Assays:
rape = assay: Greenhouse pre-emergence GR15/GR85 selectivity test; format: in vivo; conditions: Table XV
Source text: (§1) A good grade of top soil is placed in aluminum pans and compacted to a depth of three-eighths to one-half inch from the top of the pan. On the top of the soil is placed a number of seeds or vegetative propagules of various plant species. The soil required to level fill the pans after seeding or adding vegetative propagules is weighed into a pan. The soil and a known amount of the active ingredient applied in a solvent or as a wettable powder suspension are thoroughly mixed, and used to cover the prepared pans. After treatment, the pans are given an initial overhead irrigation of eater, equivalent to one-fourth inch (0.64 cm) rainfall, then watered by subirrigation as need to give adequate moisture for germination and growth. As an alternative procedure, the overhead irrigation may be omitted. Observations are made about 2-3 weeks after seeding and treatment.
(§2) In the discussion and tables of data below, reference is made to herbicide application rates symbolized as "GR15 " and "GR85 "; these rates are given in kilograms per hectare (kg/ha) which are convertible into pounds per acre (lbs/A) by dividing the kg/ha rate by 1.12.
(§3) A further guide to the effectiveness of a chemical as a selective herbicide is the "selectivity factor" ("SF") for a herbicide in given crops and weeds. The selectivity factor is a measure of the relative degree of crop safety and weed injury and is expressed in terms of the GR15 /GR85 ratio, i.e., the GR15 rate for the crop divided by the GR85 rate for the weed, both rates in kg/ha (lb/A). In the tables below, selectivity factors are shown in parenthesis following the GR85 rate for each weed; the symbol "NS" indicates "non-selective". Marginal or undetermined selectivity is indicated by a dash (--).
(§4) Additionally, pre-emergence herbicidal data from other tests have established that compounds according to this invention also selectively suppress quackgrass, yellow nutsedge and/or other weeds in one or more of the crops cotton, peanuts, bush beans and/or rape. For example, in Table VI are presented data showing the herbicidal selectivity of the compounds of Examples 1 and 2 against quackgrass in rape and snap beans. Unless otherwise noted; greenhouse tests in Table VI and in other tables below involved herbicide treatments by soil incorporation and an initial overhead irrigation followed by subirrigation as described above.
In another greenhouse test, the compounds of Examples 3-5, 9 and 10 were tested for their herbicidal efficacy against a variety of resistant annual and perennial weeds in rape.

Quackgrass [1] = assay: Herbicidal effect in a variety of soil types; format: in vivo; conditions: Table XVII B; for selectivity factor (GR15/GR85): in soybeans
Source text: The herbicide treatments were by soil incorporation with seeds planted 0.375 in (0.95 cm) deep, with 0.25 in (0.64 cm overhead irrigation. Observations were made about three weeks after treatment. Selectivity factors are shown in parenthesis.

shattercane = assay: Greenhouse pre-emergence GR15/GR85 selectivity test; format: in vivo; conditions: Table XVI
Source text: as §1, with “After treatment, the pans are given an initial overhead irrigation of eater, equivalent to one-fourth inch (0.64 cm) rainfall, then watered by subirrigation as need to give adequate moisture for germination and growth.” left out
as §3
(§5) Unless otherwise noted; greenhouse tests in Table VI and in other tables below involved herbicide treatments by soil incorporation and an initial overhead irrigation followed by subirrigation as described above.

fall panicum = assay: as above; format: in vivo; conditions: Table XVI
Source text: as §1, with “After treatment, the pans are given an initial overhead irrigation of eater, equivalent to one-fourth inch (0.64 cm) rainfall, then watered by subirrigation as need to give adequate moisture for germination and growth.” left out
as §3, §5

Texas panicum = assay: as above; format: in vivo; conditions: Table XVI
Source text: as §1, with “After treatment, the pans are given an initial overhead irrigation of eater, equivalent to one-fourth inch (0.64 cm) rainfall, then watered by subirrigation as need to give adequate moisture for germination and growth.” left out
as §3, §5

itchgrass = assay: as above; format: in vivo; conditions: Table XVI
Source text: as §1, with “After treatment, the pans are given an initial overhead irrigation of eater, equivalent to one-fourth inch (0.64 cm) rainfall, then watered by subirrigation as need to give adequate moisture for germination and growth.” left out
as §3, §5

seedling johnsongrass = assay: as above; format: in vivo; conditions: Table XVI
Source text: as §1, with “After treatment, the pans are given an initial overhead irrigation of eater, equivalent to one-fourth inch (0.64 cm) rainfall, then watered by subirrigation as need to give adequate moisture for germination and growth.” left out
as §3, §5

alexandergrass = assay: as above; format: in vivo; conditions: Table XV; for selectivity factor (GR15/GR85): in rape
Source text: as §1, with “After treatment, the pans are given an initial overhead irrigation of eater, equivalent to one-fourth inch (0.64 cm) rainfall, then watered by subirrigation as need to give adequate moisture for germination and growth.” left out
as §3, §5

red rice = assay: as above; format: in vivo; conditions: Table XVI
Source text: as §1, with “After treatment, the pans are given an initial overhead irrigation of eater, equivalent to one-fourth inch (0.64 cm) rainfall, then watered by subirrigation as need to give adequate moisture for germination and growth.” left out
as §3, §5

wild proso millet = assay: as above; format: in vivo, wild proso millet (panicum milicaeum); conditions: Table XVI
Source text: as §1, with “After treatment, the pans are given an initial overhead irrigation of eater, equivalent to one-fourth inch (0.64 cm) rainfall, then watered by subirrigation as need to give adequate moisture for germination and growth.” left out
as §3, §5

soybeans = assay: Herbicidal effect in a variety of soil types; format: in vivo; conditions: Table XVII B
Quackgrass [2] = assay: Greenhouse pre-emergence GR15/GR85 selectivity test; format: in vivo
Source text: as §1, with “After treatment, the pans are given an initial overhead irrigation of eater, equivalent to one-fourth inch (0.64 cm) rainfall, then watered by subirrigation as need to give adequate moisture for germination and growth.” left out
as §3
(§6) These weeds are commonly associated with such major crops as corn and soybeans. […] The test procedure was the same as described for Tables II and III but modified by the application of an initial overhead irrigation equivalent to 1/4" (0.64 cm) rainfall; subsequent watering was accomplished by subirrigation. "NS" means non-selective within the test limits.
as §5

Yellow Nutsedge = assay: as above; format: in vivo
Source text: as §1, with “After treatment, the pans are given an initial overhead irrigation of eater, equivalent to one-fourth inch (0.64 cm) rainfall, then watered by subirrigation as need to give adequate moisture for germination and growth.” left out
as §3, §6, §5

corn = assay: as above; format: in vivo
Source text: as §1, §2, §3
In Table IV pre-emergence herbicidal activity data are presented comparing the relative efficacy of the invention compounds and said prior art compounds as selective herbicides against the resistant and troublesome perennial weeds quackgrass and yellow nutsedge in soybeans and corn, respectively. These weeds are commonly associated with such major crops as corn and soybeans. The test data in Table IV were obtained under identical procedural conditions and represent two replicate runs (except for the compound of Example 9 which was present in one comparative test). The test procedure was the same as described for Tables II and III but modified by the application of an initial overhead irrigation equivalent to 1/4" (0.64 cm) rainfall; subsequent watering was accomplished by subirrigation. "NS" means non-selective within the test limits.
as §4

## Cc1cccc(C(F)(F)F)c1N(COCC(C)C)C(=O)CCl [Example 5, N--(isobutoxymethyl)-2'-trifluoromethyl-6'-methyl-2-chloroacetanilide]
rape
  GR15 Rate: > 1.12 Kg/Ha
Quackgrass [1]; Drummer silty clay
  GR85: 1.1 Kg/Ha
  selectivity factor (GR15/GR85): 2
Quackgrass [1]; Florida muck
  GR85: 3.0 Kg/Ha
Quackgrass [1]; Florida sand
  GR85: 1.1 Kg/Ha
  selectivity factor (GR15/GR85): 3
Quackgrass [1]; Ray silt loam
  GR85: > 2.2 Kg/Ha
  selectivity factor (GR15/GR85): NS (non-selective)
Quackgrass [1]; Sarpy silty clay
  GR85: 1.6 Kg/Ha
  selectivity factor (GR15/GR85): 2
Quackgrass [1]; Wabash silty clay
  GR85: 1.6 Kg/Ha
  selectivity factor (GR15/GR85): 1.5
shattercane
  GR85 Rate: 0.56 Kg/Ha
shattercane; in lima beans
  selectivity factor (GR15/GR85): > 2
shattercane; in peanuts
  selectivity factor (GR15/GR85): 1
Fall panicum
  GR85 Rate: 0.28 Kg/Ha
Fall panicum; in lima beans
  selectivity factor (GR15/GR85): > 4
Fall panicum; in peanuts
  selectivity factor (GR15/GR85): 2
Texas panicum
  GR85 Rate: 0.53 Kg/Ha
Texas panicum; in lima beans
  selectivity factor (GR15/GR85): > 2.1
Texas panicum; in peanuts
  selectivity factor (GR15/GR85): 1.1
itchgrass
  GR85 Rate: 0.56 Kg/Ha
itchgrass; in lima beans
  selectivity factor (GR15/GR85): > 2
itchgrass; in peanuts
  selectivity factor (GR15/GR85): 1
Seedling johnsongrass
  GR85 Rate: 0.37 Kg/Ha
Seedling johnsongrass; in lima beans
  selectivity factor (GR15/GR85): > 3
Seedling johnsongrass; in peanuts
  selectivity factor (GR15/GR85): 1.5
alexandergrass
  GR85 Rate: 0.7 Kg/Ha
  selectivity factor (GR15/GR85): > 1.6
Red rice
  GR85 Rate: 0.53 Kg/Ha
Red rice; in lima beans
  selectivity factor (GR15/GR85): > 2.1
Red rice; in peanuts
  selectivity factor (GR15/GR85): 1.1
Wild proso millet
  GR85 Rate: 0.56 Kg/Ha
Wild proso millet; in lima beans
  selectivity factor (GR15/GR85): > 2
Wild proso millet; in peanuts
  selectivity factor (GR15/GR85): 1
soybeans; Drummer silty clay
  GR15: 2.2 Kg/Ha
soybeans; Florida muck
  GR15: > 2.0 Kg/Ha
soybeans; Florida sand
  GR15: 3.0 Kg/Ha
soybeans; Ray silt loam
  GR15: 2.0 Kg/Ha
soybeans; Sarpy silty clay
  GR15: 3.0 Kg/Ha
soybeans; Wabash silty clay
  GR15: 2.2 Kg/Ha

## CCCOCN(C(=O)CCl)c1c(CC)cccc1C(F)(F)F [Example 10, N--(n-propoxymethyl)-2'-trifluoromethyl-6'-ethyl-2-chloroacetanilide]
Quackgrass [2]; Table XIII
  GR85: 0.45 Kg/Ha
Quackgrass [2]; in wheat
  selectivity against quackgrass in wheat: non-selective
Quackgrass [2]; quackgrass in corn, Table XIII
  selectivity factor (GR15/GR85): 5.6
Quackgrass [2]; quackgrass in soybeans, Table XIII
  selectivity factor (GR15/GR85): 3.3
Yellow Nutsedge; Table XII
  GR85: 0.38 Kg/Ha
Yellow Nutsedge; in rice
  selectivity with respect to yellow nutsedge in rice: non-selective
Yellow Nutsedge; yellow nutsedge in corn, Table XII
  selectivity factor (GR15/GR85): 4.5
Yellow Nutsedge; yellow nutsedge in cotton, Table XII
  selectivity factor (GR15/GR85): 7.4
Yellow Nutsedge; yellow nutsedge in soybeans, Table XII
  selectivity factor (GR15/GR85): 5.8
rape
  GR15 Rate: > 1.12 Kg/Ha
corn; Table XII
  GR15: 1.7 Kg/Ha
corn; Table XIII
  GR15: 2.5 Kg/Ha
shattercane
  GR85 Rate: 0.56 Kg/Ha
shattercane; in lima beans
  selectivity factor (GR15/GR85): > 2
shattercane; in peanuts
  selectivity factor (GR15/GR85): 1.8
Fall panicum
  GR85 Rate: 0.22 Kg/Ha
Fall panicum; in lima beans
  selectivity factor (GR15/GR85): > 5.1
Fall panicum; in peanuts
  selectivity factor (GR15/GR85): 4.5
Texas panicum
  GR85 Rate: 1.1 Kg/Ha
Texas panicum; in lima beans
  selectivity factor (GR15/GR85): > 1
Texas panicum; in peanuts
  selectivity factor (GR15/GR85): NS (non-selective)
itchgrass
  GR85 Rate: 0.90 Kg/Ha
itchgrass; in lima beans
  selectivity factor (GR15/GR85): > 1.2
itchgrass; in peanuts
  selectivity factor (GR15/GR85): 1.1
Seedling johnsongrass
  GR85 Rate: 0.36 Kg/Ha
Seedling johnsongrass; in lima beans
  selectivity factor (GR15/GR85): > 3.1
Seedling johnsongrass; in peanuts
  selectivity factor (GR15/GR85): 2.7
alexandergrass
  GR85 Rate: 0.36 Kg/Ha
  selectivity factor (GR15/GR85): > 3.1
Red rice
  GR85 Rate: 0.98 Kg/Ha
Red rice; in lima beans
  selectivity factor (GR15/GR85): > 1.1
Red rice; in peanuts
  selectivity factor (GR15/GR85): 1
Wild proso millet
  GR85 Rate: 0.80 Kg/Ha
Wild proso millet; in lima beans
  selectivity factor (GR15/GR85): > 1.4
Wild proso millet; in peanuts
  selectivity factor (GR15/GR85): 1.2
